ChEMBL document CHEMBL4118077, “Synthesis of thiazole linked indolyl-3-glyoxylamide derivatives as tubulin polymerization inhibitors” (Eur J Med Chem, 2017)

Key:
HCT-15 = assay: Antiproliferative activity against human HCT15 cells after 48 hrs by MTT assay; type: functional, cell-based; details: HCT-15, 48 h
PC-3 = assay: Antiproliferative activity against human PC3 cells after 48 hrs by MTT assay; type: functional, cell-based; details: PC-3, 48 h
A549 = assay: Antiproliferative activity against human A549 cells after 48 hrs by MTT assay; type: functional, cell-based; details: A549, 48 h
DU-145 = assay: Antiproliferative activity against human DU145 cells after 48 hrs by MTT assay; type: functional, cell-based; details: DU-145, 48 h
Sus scrofa = organism: Sus scrofa; assay: Inhibition of porcine brain tubulin polymerization at 5 uM measured for 1 hr by fluorescence assay relative to control

Row | SMILES | IC50 (HCT-15) [µM] | IC50 (PC-3) [µM] | IC50 (A549) [µM] | IC50 (DU-145) [µM] | inhibition (Sus scrofa) [%]
1 | O=C(CCn1cc(C(=O)C(=O)N2CCCCC2)c2ccccc21)Nc1nc(-c2ccccc2)cs1 | > 50 | > 50 | > 50 | > 50 | –
2 | COc1cc([C@@H]2c3cc4c(cc3[C@H](O)[C@H]3COC(=O)[C@H]23)OCO4)cc(OC)c1OC | – | – | – | – | 78
3 | Cc1ccc(-c2csc(NC(=O)CCn3cc(C(=O)C(=O)N4CCCCC4)c4ccccc43)n2)cc1 | > 50 | > 50 | > 50 | > 50 | –
4 | COc1ccc2sc(NC(=O)CCn3cc(C(=O)C(=O)N4CCCCC4)c4ccccc43)nc2c1 | > 50 | 15.3 | > 50 | 12.3 | –
5 | CCOC(=O)c1nc(NC(=O)CCn2cc(C(=O)C(=O)N3CCCCC3)c3ccccc32)sc1C | > 50 | > 50 | > 50 | > 50 | 12.2
6 | CCOC(=O)c1nc(NC(=O)Cn2cc(C(=O)C(=O)NC3CC3)c3ccccc32)sc1C | 10.3 | 8.5 | 20.9 | 4.6 | 21.3
7 | Cc1ccc(-c2csc(NC(=O)Cn3cc(C(=O)C(=O)Nc4ccccc4)c4cc(Br)ccc43)n2)cc1 | > 50 | > 50 | > 50 | 10.2 | –
8 | O=C(CCn1cc(C(=O)C(=O)N2CCCCC2)c2ccccc21)Nc1nccs1 | > 50 | > 50 | > 50 | > 50 | –
9 | COc1ccc2sc(NC(=O)Cn3cc(C(=O)C(=O)N4CCCCC4)c4ccccc43)nc2c1 | > 50 | 4.2 | > 50 | 6.4 | 38.5
10 | CCOC(=O)c1nc(NC(=O)Cn2cc(C(=O)C(=O)Nc3ccccc3)c3ccccc32)sc1C | 2.5 | 6.1 | 6.3 | 0.14 | 58.4
